# Source: patent US12377060B2, “Methods and compositions for preventing or treating tissue calcification” (Epizon Pharma, Inc., priority 2018, dated 2025)
# Experiments:
# [1] = tested on: ESRD subjects on stable hemodialysis; test: Example 1: contemplated administration of MK-7 and/or MKH2-7 to ESRD subjects on stable hemodialysis, biomarkers of tissue calcification; type: in vivo, human; conditions: 10 mg, 25 mg or 50 mg once daily orally
# Procedure: This example describes the administration of MK-7 and/or MKH2-7 to a subject with ESRD and/or on stable hemodialysis. It is contemplated that administration of MK-7 and/or MKH2-7 will result in a change in aortic compliance (via plethysmography), vascular calcification and certain biomarker levels indicative of slowing the progression of, arresting, or reversing tissue calcification.
# ESRD subjects on stable hemodialysis orally receive MK-7 and/or MKH2-7 at 10 mg, 25 mg or 50 mg once daily for least 2 weeks, 4 weeks, 6 weeks, 8 weeks, 3 months, 6 months, 1 year, or indefinitely. The dosage form is a 10 mg or 25 mg soft-gel capsule. Two 25 mg capsules are administered once daily to the 50 mg dosage cohort.
# Coronary arterial calcium scores (CAC) are used to estimate the extent of calcification of thoracic arteries. A high CAC score is indicative of calcification, and treatment has the aim of arresting the long term increase in CAC score, or reversing it, or slowing the rate of increase. Aortic plethysmography also is used to measure arterial compliance, which decreases as calcification increases. Pulse wave velocity (PWV) also is measured to assess arterial compliance. The foregoing measures are useful in estimating the utility of treatments intended to prevent, slow the progression of, arrest or reverse vascular calcification. These measurements are used pre- and post-treatment with MK-7 and/or MKH2-7 to assess treatment value.
# Further, several biomarkers are assessed to determine the efficacy of MK-7 and/or MKH2-7 at the three dose levels. Exemplary biomarkers include PIVKA-II; uncarboxylated and total Matrix Gla Protein (MGP); uncarboxylated, carboxylated and total osteocalcin protein; uncarboxylated, carboxylated and total Protein C, osteoprotegerin, Fetuin A, and hs-CRP. Blood samples are obtained to measure the biomarkers, most conveniently during patient visits for hemodialysis.
# It is contemplated that administration of MK-7 and/or MKH2-7 can result in (i) an increase in […], osteoprotegerin, or Fetuin A, which is indicative of slowing the progression of, arresting or reversing tissue calcification, (ii) a decrease in uncarboxylated MGP, uncarboxylated osteocalcin, and/or uncarboxylated Protein C, which is indicative of slowing the progression of, arresting or reversing tissue calcification, and/or (iii) a decrease in hs-CRP, which is indicative of slowing the progression of, arresting or reversing tissue calcification and/or reduced inflammation.
# It is contemplated that, following the daily administration of 10 mg, 25 mg or 50 mg MK-7 and/or MKH2-7, at least one of PIVKA-II, under-carboxylated Matrix Gla Protein (MGP), uncarboxylated osteocalcin protein, uncarboxylated Protein C, osteoprotegerin, Fetuin A, and hs-CRP will show a change indicative of slowing the progression of, arresting or reversing tissue calcification.
# osteocalcin = conditions: 100-200 μg/d for 4 to 12 weeks; cited from earlier work
SMILES,change in Fetuin A [1],change in hs-CRP [1],change in osteoprotegerin [1],change in uncarboxylated MGP [1],change in uncarboxylated Protein C [1],change in uncarboxylated osteocalcin [1],ratio of carboxylated to undercarboxylated osteocalcin (osteocalcin)
"CC(C)=CCC/C(C)=C/CC/C(C)=C/CC/C(C)=C/CC/C(C)=C/CC/C(C)=C/CC/C(C)=C/Cc1c(C)c(O)c2ccccc2c1O [MKH2-7, 2-[(2E,6E,10E,14E,18E,22E)-3,7,11,15,19,23,27-heptamethyloctacosa-2,6,10,14,18,22,26-heptaenyl]-3-methylnaphthalene-1,4-diol]",increase,decrease,increase,decrease,decrease,decrease,–
"CC(C)=CCC/C(C)=C/CC/C(C)=C/CC/C(C)=C/CC/C(C)=C/CC/C(C)=C/CC/C(C)=C/CC1=C(C)C(=O)c2ccccc2C1=O [MK-7, 2-[(2E,6E,10E,14E,18E,22E)-3,7,11,15,19,23,27-heptamethyloctacosa-2,6,10,14,18,22,26-heptaenyl]-3-methylnaphthalene-1,4-dione]",increase,decrease,increase,decrease,decrease,decrease,significantly and in a dose-dependent manner
